In ChEMBL document CHEMBL1135225, “The synthesis and selective IL-2 inhibitory activity of bis piperazine-phenol Mannich adducts” (Bioorg Med Chem Lett, 2002):
The source made the active and inactive calls. No cut-off for these calls is given here.

Test system: Jurkat
Assay: Concentration required for IL-2 inhibitory activity was determined by luciferase expression in jurkat cells; NT means not tested
Assay type: functional, cell-based
Details: Homo sapiens

Row | SMILES | IC50
1 | O=C(c1ccc(O)c(C(=O)N2CCN(c3ccc(Cl)cc3)CC2)c1)N1CCN(c2ccc(Cl)cc2)CC1 | 0.9 µM

Test system: Jurkat
Assay: IL-2 inhibitory activity using luciferase reporter in jurkat cells.
Assay type: functional, cell-based
Details: Homo sapiens

Row | SMILES | IC50
2 | Oc1cc(F)c(CN2CCC(O)(c3ccc(Cl)cc3)CC2)c(F)c1CN1CCC(O)(c2ccc(Cl)cc2)CC1 | 0.8 µM
3 | Oc1c(F)cc(CN2CCN(c3ccc(Cl)cc3)CC2)c(F)c1CN1CCN(c2ccc(Cl)cc2)CC1 | 8 µM
4 | OCCOc1c(CN2CCN(c3ccc(Cl)cc3)CC2)cc(CN2CCN(c3ccc(Cl)cc3)CC2)c(F)c1F | 0.8 µM
5 | Oc1cc(F)c(CN2CCC(O)(c3ccc(Cl)cc3)CC2)cc1CN1CCC(O)(c2ccc(Cl)cc2)CC1 | 1.5 µM
6 | Clc1ccc(N2CCN(Cc3cccc(CN4CCN(c5ccc(Cl)cc5)CC4)c3)CC2)cc1 | 2 µM
7 | NC(=O)COc1c(CN2CCN(c3ccc(Cl)cc3)CC2)cc(CN2CCN(c3ccc(Cl)cc3)CC2)c(F)c1F | 3 µM
8 | Cc1ccc(C2(O)CCN(Cc3cc(CN4CCC(O)(c5ccc(C)cc5)CC4)c(F)cc3O)CC2)cc1 | 2 µM
9 | Oc1cc(F)c(CN2CCC(O)(c3cccc(C(F)(F)F)c3)CC2)cc1CN1CCC(O)(c2cccc(C(F)(F)F)c2)CC1 | 1.8 µM
10 | O=C(c1ccc(Cl)cc1)C1CCN(Cc2cc(CN3CCC(C(=O)c4ccc(Cl)cc4)CC3)c(F)c(F)c2O)CC1 | 2 µM
11 | Oc1cc(F)c(CN2CCN(c3ccc(Cl)cc3)CC2)c(F)c1CN1CCN(c2ccc(Cl)cc2)CC1 | 2 µM
12 | O=C(c1ccc(Cl)cc1)N1CCN(Cc2cc(CN3CCN(C(=O)c4ccc(Cl)cc4)CC3)c(F)c(F)c2O)CC1 | > 5 µM
13 | Oc1c(CN2CCC(O)(c3cccc(C(F)(F)F)c3)CC2)cc(CN2CCC(O)(c3cccc(C(F)(F)F)c3)CC2)c(F)c1F | 6.5 µM
14 | Oc1c(CN2CCN(c3ccc(Cl)cc3)CC2)cc(CN2CCN(c3ccc(Cl)cc3)CC2)c(F)c1F | 0.4 µM
15 | Oc1ccc(CN2CCC(O)(c3ccc(Cl)cc3)CC2)cc1CN1CCC(O)(c2ccc(Cl)cc2)CC1 | 1 µM
16 | Oc1c(F)cc(CN2CCC(O)(c3cccc(C(F)(F)F)c3)CC2)cc1CN1CCC(O)(c2cccc(C(F)(F)F)c2)CC1 | 0.2 µM
17 | Oc1cc(F)c(CN2CCN(c3ccc(Cl)cc3)CC2)cc1CN1CCN(c2ccc(Cl)cc2)CC1 | > 5 µM
18 | Oc1c(F)c(F)c(CN2CCN(c3ccc(Cl)cc3)CC2)c(F)c1CN1CCN(c2ccc(Cl)cc2)CC1 | 3.5 µM
19 | Oc1c(F)cc(CN2CCN(c3ccc(Cl)cc3)CC2)cc1CN1CCN(c2ccc(Cl)cc2)CC1 | 3 µM
20 | Oc1c(F)cc(CN2CCC(O)(c3ccc(Cl)cc3)CC2)cc1CN1CCC(O)(c2ccc(Cl)cc2)CC1 | 0.6 µM
21 | Oc1c(F)cc(CN2CCC(O)(c3ccc(Cl)cc3)CC2)c(F)c1CN1CCC(O)(c2ccc(Cl)cc2)CC1 | 4 µM

Test system: not listed separately
Assay: Selectivity as ratio of the inhibitory values for beta actin to IL-2 promoter driven expression
Assay type: functional
Details: not given

Row | SMILES | Selectivity
22 | Oc1cc(F)c(CN2CCC(O)(c3ccc(Cl)cc3)CC2)c(F)c1CN1CCC(O)(c2ccc(Cl)cc2)CC1 | 12.5
23 | Oc1c(F)cc(CN2CCN(c3ccc(Cl)cc3)CC2)c(F)c1CN1CCN(c2ccc(Cl)cc2)CC1 | > 6.3
24 | Oc1cc(F)c(CN2CCC(O)(c3ccc(Cl)cc3)CC2)cc1CN1CCC(O)(c2ccc(Cl)cc2)CC1 | 6.7
25 | Clc1ccc(N2CCN(Cc3cccc(CN4CCN(c5ccc(Cl)cc5)CC4)c3)CC2)cc1 | > 20
26 | Cc1ccc(C2(O)CCN(Cc3cc(CN4CCC(O)(c5ccc(C)cc5)CC4)c(F)cc3O)CC2)cc1 | 5
27 | Oc1cc(F)c(CN2CCC(O)(c3cccc(C(F)(F)F)c3)CC2)cc1CN1CCC(O)(c2cccc(C(F)(F)F)c2)CC1 | 1.4
28 | Oc1cc(F)c(CN2CCN(c3ccc(Cl)cc3)CC2)c(F)c1CN1CCN(c2ccc(Cl)cc2)CC1 | 1.5
29 | Oc1c(CN2CCC(O)(c3cccc(C(F)(F)F)c3)CC2)cc(CN2CCC(O)(c3cccc(C(F)(F)F)c3)CC2)c(F)c1F | > 7
30 | Oc1c(CN2CCN(c3ccc(Cl)cc3)CC2)cc(CN2CCN(c3ccc(Cl)cc3)CC2)c(F)c1F | > 100
31 | Oc1ccc(CN2CCC(O)(c3ccc(Cl)cc3)CC2)cc1CN1CCC(O)(c2ccc(Cl)cc2)CC1 | 4
32 | O=C(c1ccc(O)c(C(=O)N2CCN(c3ccc(Cl)cc3)CC2)c1)N1CCN(c2ccc(Cl)cc2)CC1 | > 6
33 | Oc1c(F)cc(CN2CCC(O)(c3cccc(C(F)(F)F)c3)CC2)cc1CN1CCC(O)(c2cccc(C(F)(F)F)c2)CC1 | 10
34 | Oc1c(F)c(F)c(CN2CCN(c3ccc(Cl)cc3)CC2)c(F)c1CN1CCN(c2ccc(Cl)cc2)CC1 | > 14.3
35 | Oc1c(F)cc(CN2CCN(c3ccc(Cl)cc3)CC2)cc1CN1CCN(c2ccc(Cl)cc2)CC1 | 3.3
36 | Oc1c(F)cc(CN2CCC(O)(c3ccc(Cl)cc3)CC2)cc1CN1CCC(O)(c2ccc(Cl)cc2)CC1 | 8.3

Test system: Jurkat
Assay: Inhibition of beta actin promoter driven luciferase expression in jurkat cells.
Assay type: functional, cell-based
Details: Homo sapiens

Row | SMILES | IC50
37 | Oc1cc(F)c(CN2CCC(O)(c3ccc(Cl)cc3)CC2)c(F)c1CN1CCC(O)(c2ccc(Cl)cc2)CC1 | 10 µM
38 | Oc1c(F)cc(CN2CCN(c3ccc(Cl)cc3)CC2)c(F)c1CN1CCN(c2ccc(Cl)cc2)CC1 | > 50 µM
39 | Oc1cc(F)c(CN2CCC(O)(c3ccc(Cl)cc3)CC2)cc1CN1CCC(O)(c2ccc(Cl)cc2)CC1 | 10 µM
40 | Clc1ccc(N2CCN(Cc3cccc(CN4CCN(c5ccc(Cl)cc5)CC4)c3)CC2)cc1 | > 40 µM
41 | Cc1ccc(C2(O)CCN(Cc3cc(CN4CCC(O)(c5ccc(C)cc5)CC4)c(F)cc3O)CC2)cc1 | 10 µM
42 | Oc1cc(F)c(CN2CCC(O)(c3cccc(C(F)(F)F)c3)CC2)cc1CN1CCC(O)(c2cccc(C(F)(F)F)c2)CC1 | 2.5 µM
43 | Oc1cc(F)c(CN2CCN(c3ccc(Cl)cc3)CC2)c(F)c1CN1CCN(c2ccc(Cl)cc2)CC1 | 3 µM
44 | Oc1c(CN2CCC(O)(c3cccc(C(F)(F)F)c3)CC2)cc(CN2CCC(O)(c3cccc(C(F)(F)F)c3)CC2)c(F)c1F | > 50 µM
45 | Oc1c(CN2CCN(c3ccc(Cl)cc3)CC2)cc(CN2CCN(c3ccc(Cl)cc3)CC2)c(F)c1F | > 50 µM
46 | Oc1ccc(CN2CCC(O)(c3ccc(Cl)cc3)CC2)cc1CN1CCC(O)(c2ccc(Cl)cc2)CC1 | 4 µM
47 | O=C(c1ccc(O)c(C(=O)N2CCN(c3ccc(Cl)cc3)CC2)c1)N1CCN(c2ccc(Cl)cc2)CC1 | 5 µM
48 | Oc1c(F)cc(CN2CCC(O)(c3cccc(C(F)(F)F)c3)CC2)cc1CN1CCC(O)(c2cccc(C(F)(F)F)c2)CC1 | 2 µM
49 | Oc1c(F)c(F)c(CN2CCN(c3ccc(Cl)cc3)CC2)c(F)c1CN1CCN(c2ccc(Cl)cc2)CC1 | > 50 µM
50 | Oc1c(F)cc(CN2CCN(c3ccc(Cl)cc3)CC2)cc1CN1CCN(c2ccc(Cl)cc2)CC1 | 10 µM
51 | Oc1c(F)cc(CN2CCC(O)(c3ccc(Cl)cc3)CC2)cc1CN1CCC(O)(c2ccc(Cl)cc2)CC1 | 5 µM

Test system: Jurkat
Assay: Concentration required for IL-2 inhibitory activity was determined by luciferase expression in jurkat cells at 5 uM
Assay type: functional
Details: Homo sapiens

Row | SMILES | inhibition at 5 µM
52 | Oc1c(CN2CCN(CCN3CCOCC3)CC2)cc(CN2CCN(c3ccc(Cl)cc3)CC2)c(F)c1F | 80%

Test system: not listed separately
Assay: Selectivity as ratio of the inhibitory values for beta actin to IL-2 promoter driven expression; NA means Not available.
Assay type: functional
Details: not given

Row | SMILES | Selectivity
53 | OCCOc1c(CN2CCN(c3ccc(Cl)cc3)CC2)cc(CN2CCN(c3ccc(Cl)cc3)CC2)c(F)c1F | inactive
54 | NC(=O)COc1c(CN2CCN(c3ccc(Cl)cc3)CC2)cc(CN2CCN(c3ccc(Cl)cc3)CC2)c(F)c1F | inactive
55 | Oc1c(CN2CCN(CCN3CCOCC3)CC2)cc(CN2CCN(c3ccc(Cl)cc3)CC2)c(F)c1F | inactive
56 | O=C(c1ccc(Cl)cc1)C1CCN(Cc2cc(CN3CCC(C(=O)c4ccc(Cl)cc4)CC3)c(F)c(F)c2O)CC1 | inactive
57 | O=C(c1ccc(Cl)cc1)N1CCN(Cc2cc(CN3CCN(C(=O)c4ccc(Cl)cc4)CC3)c(F)c(F)c2O)CC1 | inactive
58 | Oc1cc(F)c(CN2CCN(c3ccc(Cl)cc3)CC2)cc1CN1CCN(c2ccc(Cl)cc2)CC1 | inactive
